Values after ≈ are worked out from the molar mass of the structure shown. Active and inactive are the calls of the source. The rule behind the calls is not given here.
Tests used:
[1] = Toxicity in ICR mouse assessed as hunchback posture at 40 mg/kg, ip measured for 30 to 4 hrs; assay type: organism-based; conditions: in vivo, time 30-4 hrs
[2] = Toxicity in ICR mouse assessed as impaired mobility at 40 mg/kg, ip measured for 30 to 4 hrs; assay type: organism-based; conditions: in vivo, time 30-4 hrs
Escherichia coli [3] = experiment: Antibacterial activity against Escherichia coli K88 infected in ICR mouse model of peritoneal sepsis assessed as reduction in blood IL-6 level at 20 mg/kg, ip measured after 10 hrs; assay type: functional, organism-based
[4] = Toxicity in ICR mouse assessed as change in serum TBIL level at 10 to 40 mg/kg, ip treated for 3 days consecutively; assay type: organism-based; conditions: in vivo, 72 h, dose 10-40 mg/kg, time 3 day
[5] = Toxicity in ICR mouse assessed as change in serum ALT level at 10 to 40 mg/kg, ip treated for 3 days consecutively; assay type: organism-based; conditions: in vivo, 72 h, dose 10-40 mg/kg, time 3 day
Escherichia coli [6] = experiment: Antibacterial activity against Escherichia coli 1515 incubated for 12 to 18 hrs by microbroth dilution method; assay type: functional; conditions: time 12-18 hrs
Bacteria [7] = experiment: Antibacterial activity against bacterial cells at pH 2; assay type: functional
[8] = system: Lactiplantibacillus plantarum; experiment: Antibacterial activity against Lactobacillus plantarum 8014 incubated for 12 to 18 hrs by microbroth dilution method; assay type: functional; conditions: time 12-18 hrs
Enterococcus faecalis = experiment: Antibacterial activity against Enterococcus faecalis 29212 incubated for 12 to 18 hrs by microbroth dilution method; assay type: functional; conditions: time 12-18 hrs
Escherichia coli [9] = experiment: Induction of ROS generation in Escherichia coli K88 assessed as increase in fluorescence intensity incubated for 1 hr by DCFH-DA dye based analysis; assay type: functional, organism-based
Escherichia coli [10] = experiment: Antibacterial activity against Escherichia coli K88 infected in ICR mouse model of peritoneal sepsis assessed as reduction in edema in renal tubular epithelial cells at 20 mg/kg, ip measured after 10 hrs by H and E staining based analysis; assay type: functional, organism-based
[11] = Selectivity ratio of MIC for antibacterial activity against Enterococcus faecalis 29212 to MIC for antibacterial activity against Escherichia coli K95; assay type: functional
Bacteria [12] = experiment: Antibacterial activity against bacterial cells at pH 4 to 10; assay type: functional
[13] = Toxicity in ICR mouse assessed as change in serum BUN level at 10 to 40 mg/kg, ip treated for 3 days consecutively; assay type: organism-based; conditions: in vivo, 72 h, dose 10-40 mg/kg, time 3 day
[14] = Effect on secondary structure of compound in PBS assessed as formation of alpha-helical conformation at 100 uM by CD analysis; assay type: physicochemical; conditions: buffer
Escherichia coli [15] = experiment: Antibacterial activity against Escherichia coli 078 incubated for 12 to 18 hrs by microbroth dilution method; assay type: functional; conditions: time 12-18 hrs
[16] = Toxicity in ICR mouse assessed as change in serum CREA level at 10 to 40 mg/kg, ip treated for 3 days consecutively; assay type: organism-based; conditions: in vivo, 72 h, dose 10-40 mg/kg, time 3 day
[17] = Selectivity ratio of MIC for antibacterial activity against Staphylococcus aureus 29213 to MIC for antibacterial activity against Escherichia coli K94; assay type: functional
Escherichia coli [18] = experiment: Antibacterial activity against Escherichia coli K88 infected in ICR mouse model of peritoneal sepsis assessed as bacterial load reduction in lung at 20 mg/kg, ip measured after 10 hrs; assay type: functional, organism-based
Escherichia coli [19] = experiment: Antibacterial activity against Escherichia coli K88 infected in ICR mouse model of peritoneal sepsis assessed as bacterial load reduction in kidney at 20 mg/kg, ip measured after 10 hrs; assay type: functional, organism-based
Bacteria [20] = experiment: Antibacterial activity against bacterial cells at 1 to 128 uM in presence of CaCl; assay type: functional, organism-based; conditions: dose 1-128 µM
Lactococcus lactis = experiment: Antibacterial activity against Lactococcus lactis NZ9000 incubated for 12 to 18 hrs by microbroth dilution method; assay type: functional; conditions: time 12-18 hrs
Escherichia coli [21] = experiment: Antibacterial activity against Escherichia coli K88 infected in ICR mouse model of peritoneal sepsis assessed as reduction in alveolar wall thickening in lungs at 20 mg/kg, ip measured after 10 hrs by H and E staining based analysis; assay type: functional, organism-based
[22] = Selectivity ratio of MIC for antibacterial activity against Escherichia coli K99 to MIC for antibacterial activity against Escherichia coli K102; assay type: functional
[23] = Cytotoxicity against porcine IPEC-J2 cells assessed as cell viability at 128 uM incubated for 4 hrs by MTT assay relative to control; assay type: toxicity, cell-based, Sus scrofa; conditions: pig, read-out: Activity
Salmonella typhimurium = experiment: Antibacterial activity against Salmonella typhimurium 7731 incubated for 12 to 18 hrs by microbroth dilution method; assay type: functional, Salmonella enterica subsp. enterica serovar Typhimurium; conditions: Salmonella enterica, time 12-18 hrs
Bacteria [24] = experiment: Antibacterial activity against bacterial cells at 1 to 128 uM in presence of NaCl; assay type: functional, organism-based; conditions: dose 1-128 µM
Escherichia coli [25] = experiment: Induction of outer membrane permeability in Escherichia coli K88 assessed as NPN leakage at 2 uM relative to control; assay type: functional
Escherichia coli [26] = experiment: Antibacterial activity against Escherichia coli K99 incubated for 12 to 18 hrs by microbroth dilution method; assay type: functional; conditions: time 12-18 hrs
[27] = Toxicity in ICR mouse assessed as change in liver index at 10 to 40 mg/kg, ip treated for 3 days consecutively; assay type: organism-based; conditions: in vivo, 72 h, dose 10-40 mg/kg, time 3 day
[28] = Selectivity ratio of MIC for antibacterial activity against Pseudomonas aeruginosa 27853 to MIC for antibacterial activity against Escherichia coli K96; assay type: functional
[29] = (§1) Binding affinity to 6xHis-tagged recombinant Escherichia coli TMK assessed as dissociation constant by BLI assay
Escherichia coli [30] = experiment: as §1
Escherichia coli [31] = experiment: Antibacterial activity against Escherichia coli K88 infected in ICR mouse model of peritoneal sepsis assessed as reduction in vascular bruising in liver at 20 mg/kg, ip measured after 10 hrs by H and E staining based analysis; assay type: functional, organism-based
Escherichia coli [32] = experiment: Antibacterial activity against Escherichia coli K88 infected in ICR mouse model of peritoneal sepsis assessed as reduction in necrosis in renal tubular epithelial cells at 20 mg/kg, ip measured after 10 hrs by H and E staining based analysis; assay type: functional, organism-based
[33] = Selectivity ratio of MIC for antibacterial activity against Escherichia coli 1515 to MIC for antibacterial activity against Escherichia coli K100; assay type: functional
Escherichia coli [34] = experiment: Induction of inner membrane permeability in Escherichia coli K88 assessed as increase in ONP level at 2 uM; assay type: functional, organism-based
[35] = Toxicity in ICR mouse assessed as body weight change at 10 to 40 mg/kg, ip treated for 3 days consecutively; assay type: organism-based; conditions: in vivo, 72 h, dose 10-40 mg/kg, time 3 day
Pseudomonas aeruginosa = experiment: Antibacterial activity against Pseudomonas aeruginosa 27853 incubated for 12 to 18 hrs by microbroth dilution method; assay type: functional; conditions: time 12-18 hrs

Structure (SMILES): CC[C@@H](C)[C@H](NC(=O)CNC(=O)[C@@H]1CCCN1C(=O)[C@H](CCCCN)NC(=O)[C@H](Cc1c[nH]c2ccccc12)NC(=O)[C@@H](NC(=O)[C@H](CCCCN)NC(=O)[C@H](CCCCN)NC(=O)[C@H](Cc1c[nH]c2ccccc12)NC(=O)[C@H](Cc1ccc(O)cc1)NC(=O)[C@H](CCCCN)NC(=O)[C@@H](NC(=O)[C@H](CC(C)C)NC(=O)[C@H](CC(N)=O)NC(=O)CNC(=O)[C@@H](N)CO)[C@@H](C)O)[C@@H](C)CC)C(=O)N[C@@H](CCCCN)C(=O)N[C@@H](CCCCN)C(=O)N[C@@H](Cc1c[nH]c2ccccc12)C(=O)N[C@H](C(=O)N[C@@H](CCCCN)C(=O)O)[C@H](C)CC
- Activity [1]: Toxic
- Activity [2]: Toxic
- Activity (Escherichia coli [3]): Active
- Activity [4]: Non-toxic
- Activity [5]: Non-toxic
- MIC (Escherichia coli [6]): 4 µM (≈ 10.4 µg/mL)
- MIC (Bacteria [7]): 4 µM (≈ 10.4 µg/mL)
- MIC [8]: 128 µM (≈ 333 µg/mL)
- MIC (Enterococcus faecalis): 128 µM (≈ 333 µg/mL)
- Activity (Escherichia coli [9]): Dose-dependent-effect
- Activity (Escherichia coli [10]): Active
- Ratio [11]: >2
- MIC (Bacteria [12]): 2 µM (≈ 5.21 µg/mL)
- Activity [13]: Non-toxic
- Activity [14]: Active
- MIC (Escherichia coli [15]): 8 µM (≈ 20.8 µg/mL)
- Activity [16]: Non-toxic
- Ratio [17]: >2
- Activity (Escherichia coli [18]): Active; Activity Comparable To Colistin Treatment
- Activity (Escherichia coli [19]): Active; Activity Comparable To Colistin Treatment
- Activity (Bacteria [20]): inactive
- MIC (Lactococcus lactis): 128 µM (≈ 333 µg/mL)
- Activity (Escherichia coli [21]): Active
- Ratio [22]: >2
- viability at 4 h, 128 µM [23]: > 80%
- MIC (Salmonella typhimurium): 4 µM (≈ 10.4 µg/mL)
- Activity (Bacteria [24]): inactive
- Activity (Escherichia coli [25]): ~50%
- MIC (Escherichia coli [26]): 4 µM (≈ 10.4 µg/mL)
- Activity [27]: Non-toxic
- Ratio [28]: >2
- Kd [29]: 4.72 µM
- Activity (Escherichia coli [30]): Dose-dependent-effect
- Activity (Escherichia coli [31]): Active
- Activity (Escherichia coli [32]): Active
- Ratio [33]: >2
- Activity (Escherichia coli [34]): Active
- Activity [35]: Non-toxic
- MIC (Pseudomonas aeruginosa): 8 µM (≈ 20.8 µg/mL)

— ChEMBL document CHEMBL6103615, “Thymidylate Kinase-Targeted Antimicrobial Peptides via Phage Display: A Novel Strategy against Gram-Negative Bacteria” (J Med Chem, 2025)
